This passage reports TGI results from PubChem BioAssay (NCI).

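In this assay, cells in 96-well plates receive the compound at five concentrations for 48 hours. Endpoints are linearly interpolated between the surrounding concentrations. TGI denotes the concentration required for complete inhibition of growth.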

Holding throughout (assay): DTP human tumour cell line panel, 48 h
The subject of experiment [1] is CCRF-CEM leukemia.
In experiment [2] the test system is DU-145 prostate.
The test system of experiment [3] is HCT-116 colon.
Experiment [4] deals with HCT-15 colon.
The subject of experiment [5] is MDA-N.
Experiment [6] has as its system SNB-75 CNS.
For experiment [7], the system named is OVCAR-3 ovarian.
In experiment [8] the test system is U251 CNS.

With `O=C1C(=Cc2ccc(O)cc2)N=C(c2ccccc2)N1n1c(-c2ccccc2)nc2ccccc2c1=O`, the TGI in experiment [1], in experiment [2], in experiment [3], in experiment [4], in experiment [5] and in experiment [6] was greater than 100 µM throughout.

As for `COC(=O)[C@H](Cc1c[nH]c2ccccc12)NP(=O)(O)OCC1C=CC(n2cc(C)c(=O)[nH]c2=O)O1` (stereo partly drawn), the TGI in experiment [1], in experiment [2], in experiment [3], in experiment [4], in experiment [5] and in experiment [7] was greater than 100 µM throughout. For the same compound, the TGI in experiment [6] and in experiment [8] was greater than 100 µM each time.

For the compound `CC(=O)O[C@H]1C(=O)[C@]2(C)[C@@H](OC(=O)OCCC(O)CO)C[C@H]3OC[C@@]3(OC(C)=O)[C@H]2[C@H](OC(=O)c2ccccc2)[C@]2(O)C[C@H](OC(=O)[C@H](O)[C@@H](NC(=O)c3ccccc3)c3ccccc3)C(C)=C1C2(C)C` (stereo partly drawn), the concentration for total growth inhibition (TGI) was 0.0462 µM in experiment [1]; 0.0657 µM in experiment [2]; 5.65 µM in experiment [3]; greater than 100 µM in experiment [4]; less than 0.01 µM in experiment [5]; 0.0932 µM in experiment [7]. Besides, the values for the TGI in experiment [6] and in experiment [8] were 0.158 µM and 18 µM, respectively.

Turning to `CC1=CC2C(O1)C1C(=O)C=CC(=O)C1=CC2[N+](=O)[O-]` (stereo not drawn), the TGI in experiment [1] is greater than 23.7 µM; in experiment [2], greater than 55.9 µM; in experiment [3], 31.8 µM; in experiment [4] it was 39.6 µM; in experiment [5], 65.8 µM; in experiment [7] it was 30.7 µM. Further, the TGI in experiment [6] is greater than 68.1 µM; in experiment [8], 36.3 µM.

Regarding `COc1cc(/C=C2\S/C(=N/Nc3nc(-c4ccc(Br)cc4)cs3)NC2=O)cc(OC)c1OC`, the TGI in experiment [1] was determined as 10.3 µM; in experiment [2] it was 52.4 µM; in experiment [3] it was 17.2 µM; in experiment [4], 36.1 µM; in experiment [5], 75.1 µM; in experiment [7], 30.3 µM. The results for the TGI in experiment [6] and in experiment [8] were 77.2 µM and 16.3 µM, respectively.

In the case of `CC[C@@]1(C[C@H]2C[C@@]3(C(=O)OC)c4[nH]c5ccccc5c4CCN3C2=O)COC2(CCCCC2)O1`, the TGI in experiment [2], in experiment [3], in experiment [4], in experiment [5], in experiment [7] and in experiment [6] was greater than 100 µM throughout.

For the compound `COc1c(C)c(C/C=C(\C)CCCCO[Si](c2ccccc2)(c2ccccc2)C(C)(C)C)c(OC)c(OC)c1OC`, the total growth inhibition concentration (TGI) in experiment [1] was greater than 46.4 µM; in experiment [2], 37.6 µM; in experiment [3], greater than 46.4 µM; in experiment [4], greater than 46.4 µM; in experiment [5], greater than 46.4 µM; in experiment [7], greater than 46.4 µM. The TGI in experiment [6] and in experiment [8] was greater than 46.4 µM in each case.

Turning to `CCNC(=S)N/N=C/c1cc([N+](=O)[O-])ccc1O`, the TGI was 38.6 µM in experiment [1]; greater than 100 µM in experiment [2]; 40.8 µM in experiment [3]; greater than 100 µM in experiment [4]; greater than 100 µM in experiment [5]; greater than 100 µM in experiment [6]. The compound also came in with a concentration for total growth inhibition (TGI) in experiment [8] greater than 100 µM.

With `CCCN=C1CCN(Cc2ccccc2)c2ccccc2N1`, the TGI in experiment [1] was greater than 100 µM; in experiment [2], greater than 100 µM; in experiment [3] it was greater than 100 µM; in experiment [4] it was 51.7 µM; in experiment [5] it was greater than 100 µM; in experiment [7], greater than 100 µM. For the same compound, the TGI in experiment [6] is 27.5 µM; in experiment [8] it was 43.6 µM.

For the compound `COc1ccc(/C=C2\CCC(C)C3=C2NC(=S)NC3c2ccc(OC)c(OC)c2)cc1OC` (stereo not drawn), the total growth inhibition concentration (TGI) in experiment [2] is greater than 31.6 µM; in experiment [3], greater than 31.6 µM; in experiment [4], greater than 31.6 µM; in experiment [5] it was 12.1 µM; in experiment [7], greater than 31.6 µM; in experiment [6], greater than 100 µM. Besides, in experiment [8], the concentration for total growth inhibition (TGI) was greater than 31.6 µM.

Take `COc1ccc(N2C(=O)C3c4[nH]c5ccccc5c4C4CCC(C(C)(C)C)CC4C3C2=O)c(C)c1` (stereo not drawn): the TGI in experiment [1], in experiment [2], in experiment [3], in experiment [4], in experiment [5] and in experiment [7] was greater than 100 µM each time. Moreover, the concentration for total growth inhibition (TGI) in experiment [6] and in experiment [8] was greater than 100 µM in each case.

As for `Oc1cc2c3c(c1)c1cc4c(cc1c[n+]3CC2)OCO4`, the total growth inhibition concentration (TGI) is greater than 45.8 µM in experiment [1]; greater than 42.9 µM in experiment [2]; greater than 40.5 µM in experiment [3]; greater than 100 µM in experiment [4]; greater than 100 µM in experiment [5]; greater than 50.9 µM in experiment [7]. The compound further had a TGI in experiment [6] of 26.3 µM.

Consider `N#CC1=C(N)N(c2ccccc2)C(c2ccco2)C1(C#N)C#N` (stereo not drawn), for which the TGI in experiment [1] is 43.9 µM; in experiment [2], 37.4 µM; in experiment [3], greater than 100 µM; in experiment [4], 43.2 µM; in experiment [5], greater than 100 µM; in experiment [7], 56.7 µM. The TGI in experiment [6] is 66.8 µM; in experiment [8], 43 µM.

As for `Cc1cc(O)c2c(=O)c3ccccc3[nH]c2c1`, the TGI in experiment [1] was greater than 100 µM; in experiment [2], greater than 100 µM; in experiment [3] it was 65.2 µM; in experiment [4], 52.1 µM; in experiment [5], greater than 100 µM; in experiment [7], greater than 100 µM. In addition, the TGI was 93.6 µM in experiment [6] and greater than 100 µM in experiment [8].

Regarding `c1ccc(N=C2SC3=Nc4cccc5cccc(c45)N3C2=Nc2ccccc2)cc1`, the TGI in experiment [1], in experiment [2], in experiment [4], in experiment [5], in experiment [7] and in experiment [6] was greater than 100 µM throughout. This compound registered a TGI in experiment [8] greater than 100 µM.

In the case of `Cc1ccsc1/C=N/Nc1ncccn1`, the concentration for total growth inhibition (TGI) in experiment [1], in experiment [2], in experiment [3], in experiment [4], in experiment [5] and in experiment [7] was greater than 100 µM throughout. For the same compound, the TGI in experiment [6] and in experiment [8] was greater than 100 µM in each case.

As for `Cc1ccc(SCC(CSCCO)OCn2cnc3c2NC(N)=NC32OCCO2)cc1` (stereo not drawn), the TGI in experiment [1], in experiment [2], in experiment [3], in experiment [4], in experiment [5] and in experiment [7] was greater than 100 µM in each case. Besides, the TGI in experiment [6] and in experiment [8] was greater than 100 µM in each case.

One may read the TGI as the concentration at which net growth stops.
